Where no end group is shown, it is not given here.
Experiments:
[1] = test system: 2C11 antibody (binding to factor VIII); test: ELISA: inhibition of binding of 2C11 antibody to immobilized FVIII by soluble peptides; set-up: species or system human
Protocol: The FVIII is immobilized on the ON plate at 4° C. In parallel, the inhibitor antibody is preincubated with its epitope peptide(s) in the ON range at 4° C. in 0.1% PBS-T-2% milk. After saturation for 1 hour with 0.1% PBS-T-2% milk, the Ab-peptide mixtures are incubated with the immobilized FVIII for 2 hours at 37° C. Between each of these incubations, 3 washings with 0.1% PBS-T are carried out except after the saturation. Detection of the FVIII-Ab complex is achieved by a mouse or human anti-IgG coupled to peroxidase diluted to 1:3000 incubated for 1 hour at 37° C. After 5 washings with 0.1% PBS-T, the peroxidase substrate (OPD) is added. The reaction takes place for 30 minutes in the dark then measurement of the absorbance is carried out at 450 nm. After stopping the reaction by the addition of H2SO4 4N, a new measurement is carried out at 490 nm.
The blocking activity of the decoys can be verified in vitro in an ELISA test. […] The neutralizing ability of the decoy can be confirmed in a functional test such as the Bethesda Test (method of Kasper, [Kasper et al., 1975, Thromb. Diath. Haemorrh. 34, 875-6]).
The Inventors studied the ability of these soluble peptides to inhibit the binding of the 2C11 antibody to factor VIII in an ELISA test in vitro in the following manner: immobilization of FVIII, pre-incubation of 2C11 with the soluble peptides in the range (200 μM, 20 μM, 2 μM, 200 nM, 20 nM, 2 nM) overnight at 4° C., then incubation of this premixture on the FVIII, then development of the 2C11 antibody. The results obtained are indicated hereafter.

2C11 antibody [2] = test: Bethesda functional coagulation test: neutralization of the inhibiting activity of 2C11 by peptides; assay type: biochemical, human; conditions: for neutralization of the inhibiting activity of 2C11 (in words): 2C11 3.5 nM
Description: This functional test (Kasper, C. K. & Pool, J. G. (1975) Letter: Measurement of mild factor VIII inhibitors in Bethesda units, Thromb Diath Haemorrh. 34, 875-6) consists of measuring the time necessary for a mixture composed of different coagulation factors (FIXa, FVIII, phospholipides, calcium etc.) in order to coagulate completely. The inhibiting effect of an antibody is characterized in such a test by an extension of the coagulation time, the inhibiting ability of the antibody becomes greater as the extension of the coagulation time increases. The inhibiting character of an antibody is expressed in Bethesda units, which corresponds to the reciprocal concentration of antibodies in order to neutralize 50% of the coagulant activity of the FVIII. In contrast, the neutralizing effect of the peptides is translated by a return to the initial coagulation time obtained in the absence of inhibitor.
The functional test followed is derived from the abovementioned test described by Kasper. The anti-FVIII monoclonal antibodies are diluted in an 0.05 M imidazole buffer, pH 7.3. An equal volume of this preparation (250 μl) with normal plasma buffered in imidazole (0.1 M, pH 7.4) are mixed and incubated for 2 hours at 37° C. Similarly, normal plasma buffered in imidazole is mixed with a non-specific antibody which constitutes the control. The inhibiting activity of an antibody is read from a semi-logarithmic graph representing the correlation between the residual activity of the FVIII and the inhibiting activity.
This mixture is then treated as above.
Firstly, the Inventors evaluated in a functional coagulation test (Bethesda test) the ability of peptide 107 to restore the procoagulant activity of FVIII in the presence of 2C11. FIG. 2 depicts the dose-dependent neutralization of the inhibiting activity of 2C11 by peptide 107. […] However, higher peptide concentrations are necessary in order to achieve an effectiveness similar to that of peptide 107 (data not shown).
FIG. 2 represents the evolution of the activity of factor VIII, evaluated by the Bethesda test, in the presence of 3.5 nM of 2C11 antibody as a function of peptide concentration. The 2C11 antibody was incubated overnight at 4° C. in the presence of a control peptide or peptide 107 (SCHAWSNRRTCR) (SEQ ID NO: 10) in variable concentration. The factor VIII was then incubated for 2 hours at 37° C. with these peptide-antibody mixtures or with peptide 107 alone, then its residual activity was measured with a coagulometer, in one stage.

factor VIII = test: Bethesda test: effect on procoagulant activity of factor VIII; assay type: biochemical, human; conditions: no antibody
Description: This functional test (Kasper, C. K. & Pool, J. G. (1975) Letter: Measurement of mild factor VIII inhibitors in Bethesda units, Thromb Diath Haemorrh. 34, 875-6) consists of measuring the time necessary for a mixture composed of different coagulation factors (FIXa, FVIII, phospholipides, calcium etc.) in order to coagulate completely. The inhibiting effect of an antibody is characterized in such a test by an extension of the coagulation time, the inhibiting ability of the antibody becomes greater as the extension of the coagulation time increases. […]
The functional test followed is derived from the abovementioned test described by Kasper. […] The inhibiting activity of an antibody is read from a semi-logarithmic graph representing the correlation between the residual activity of the FVIII and the inhibiting activity.
FIG. 1 represents the effect of the 2C11 antibody on the activity of factor VIII evaluated by the Bethesda test. Factor VIII was incubated in the presence of 3.5 nM of 2C11 antibody for 2 hours at 37° C., the residual activity of factor VIII was then measured with a coagulometer, in one stage.
FIG. 2 represents the evolution of the activity of factor VIII, evaluated by the Bethesda test, in the presence of 3.5 nM of 2C11 antibody as a function of peptide concentration. […]

2C11 antibody [3] = test: In vivo neutralization of 2C11 in mice deficient in FVIII given human FVIII; set-up: species or system mouse
Protocol: Secondly, the neutralization properties of peptide 107 were studied in vivo, using a mouse model deficient in FVIII. […] Having determined this, 2C11 antibody ([…]) incubated alone, in the presence of peptide 107, or a control peptide (650 μM and 700 μM, respectively) was injected into the tail vein of three groups of mice respectively. Thirty minutes later, the FVIII plasma count of these mice was reconstituted by the injection of 0.5 UI of human FVIII and after fifteen minutes the plasma procoagulant activity was measured.
The 2C11 antibody (16.5 nM) or a mixture containing the 2C11 antibody (16.5 nM) and peptide 107 (650 μM) or a control peptide (700 μM) was injected into the tail vein of a “knock out” mouse, deficient in factor VIII, at a rate of 2.5 μg of 2C11 antibody, 1 mg of peptide 107 and 1 mg of control peptide. After 30 minutes, 0.5 UI of human factor VIII was injected and the plasma procoagulant activity was then measured by a chromogenic test 15 minutes later.
The percentage of residual activity of factor VIII is represented on the Y-axis. Bar A represents the effect of the injection of factor VIII without prior injection of antibodies (100% of residual activity). Bar B represents the effect of the injection of the 2C11 antibody alone prior to the injection of factor VIII. […]

[4] = test system: FVIII inhibitors in serums of hemophilia patients; test: Reactivity of serums of hemophilia patients with inhibitors with peptide 107; assay type: binding, human; conditions: out of 12 serums of hemophilia patients with inhibitors; preliminary study
Description: Thirdly, the Inventors looked at whether the neutralizing properties of peptide 107 vis-à-vis 2C11 could also be applied to other serums of hemophilia patients with inhibitors.

[5] = peptide concentration 0.002 (2 nM)
[6] = peptide concentration 0.02 (20 nM)
[7] = peptide concentration 20 (range: 20 μM)
[8] = peptide concentration 200 (range: 200 μM), pre-incubation overnight at 4° C.

Row | Sequence | % inhibition of 2C11 binding to FVIII [1, 5] | % inhibition of 2C11 binding to FVIII [1, 6] | % inhibition of 2C11 binding to FVIII ([1]; peptide concentration 2 (2 μM)) | % inhibition of 2C11 binding to FVIII [1, 7] | % inhibition of 2C11 binding to FVIII [1, 8] | neutralization of the inhibiting activity of 2C11 (in words) (2C11 antibody [2]) | inhibition of the 2C11 Ab/FVIII bond (in words) [1] | IC50 (2C11 antibody [2]; 2C11 concentration 3.5 nM) | peptide concentration for total neutralization of 2C11 inhibiting effect (2C11 antibody [2]; 2C11 concentration 3.5 nM) | effect of peptide incubated with FVIII alone on procoagulant activity of FVIII (factor VIII) | procoagulant activity of the FVIII maintained (2C11 antibody [3]; 2C11 16.7 nM + peptide 650 μM injected in tail vein, 0.5 UI human FVIII after 30 min, measured 15 min later) | neutralizing effect on 2C11 in vivo (in words) (2C11 antibody [3]; FVIII-deficient mice, peptide 107 650 μM, control peptide 700 μM) | number of patient serums reacting with the peptide [4]
1 | KCGRWSNRSSCT (Ac-KCGRWSNRSSCT; cysteine pairing not given here) [compound 103] | 0% | 0% | 3.47% | 28.26% | 62.73% | effectively neutralize |  |  |  |  |  |  | 
2 | SCHAWSNRRTCR [peptide 107] | 0% | 0% | 37.33% | 80.04% | 90.48% | makes it possible to neutralize the effect of the 2C11 antibody | the most effective | 19 µM | ~100 µM | does not at all modify the procoagulant activity of the FVIII | 52% | specifically neutralizes the effect of the 2C11 antibody in vivo | 2
3 | QCHTWSNRRSCL (Ac-QCHTWSNRRSCL; cysteine pairing not given here) [compound 108] | 0% | 0% | 15.79% | 25.99% | 60.69% | effectively neutralize |  |  |  |  |  |  | 
4 | RCHAWSNRKSCV (Ac-RCHAWSNRKSCV; cysteine pairing not given here) [compound 109] | 0% | 0% | 12.46% | 37.48% | 75.05% | effectively neutralize |  |  |  |  |  |  | 
5 | CSKWHNRSKRHC (Ac-CSKWHNRSKRHC; cysteine pairing not given here) [compound 105] | 0% | 0% | 10.27% | 45.04% | 75.58% | effectively neutralize |  |  |  |  |  |  | 
6 | CMKWSNRSSRWC (Ac-CMKWSNRSSRWC; cysteine pairing not given here) [compound 106] | 0% | 0% | 0.00% | 21.99% | 36.56% | effectively neutralize |  |  |  |  |  |  | 
7 | ECGSHAWGRRCK (chain 1 Ac-ECGSHAWGRRCK; chain 2 Ac-ECGSHAWGRRCK; cysteine pairing not given here) [compound 104] | 0% | 0% | 13.44% | 30.68% | 63.71% | effectively neutralize |  |  |  |  |  |  | 
